Key:
[1] = system: Glomerella lagenarium (Colletotrichum lagenarium); experiment: Fungicidal activity against Glomerella lagenarium (Colletotrichum lagenarium), liquid culture / cucumber / preventative (anthracnose); format: cell-based; conditions: Colletotrichum orbiculare, liquid culture (PDB), growth inhibition measured photometrically 3-4 days after application, compared to untreated control
How it was run: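 Glomerella lagenarium conidia in potato dextrose broth were exposed in 96-well plates to test compound diluted from DMSO stock with 0.025% Tween20 and incubated at 24 °C. Growth inhibition was read photometrically 3–4 days after application, as percent activity relative to untreated check.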

Phakopsora pachyrhizi = experiment: Fungicidal activity against Phakopsora pachyrhizi / soybean / leaf disc preventative (Asian soybean rust); format: in vivo; conditions: foliar, 288 h, soybean leaf disks, inoculated one day after application, assessed 12-14 days after application, compared to untreated control
Description: Leaf disks or leaf segments of various plant species are cut from plants grown in a greenhouse. The cut leaf disks or segments are placed in multiwell plates (24-well format) onto water agar. The leaf disks are sprayed with a test solution before (preventative) or after (curative) inoculation. Compounds to be tested are prepared as DMSO solutions (max. 10 mg/ml) which are diluted to the appropriate concentration with 0.025% Tween20 just before spraying. The inoculated leaf disks or segments are incubated under defined conditions (temperature, relative humidity, light, etc.) according to the respective test system. A single evaluation of disease level is carried out 3 to 14 days after inoculation, depending on the pathosystem. Percent disease control relative to the untreated check leaf disks or segments is then calculated. Soybean leaf disks are placed on water agar in multiwell plates (24-well format) and sprayed with the formulated test compound diluted in water. One day after application leaf discs are inoculated by spraying a spore suspension on the lower leaf surface. After an incubation period in a climate cabinet of 24-36 hours in darkness at 20° C. and 75% rh leaf disc are kept at 20° C. with 12 h light/day and 75% rh. The activity of a compound is assessed as percent disease control compared to untreated when an appropriate level of disease damage appears in untreated check leaf disks (12-14 days after application).

[2] = system: Puccinia recondita f. sp. tritici; experiment: Fungicidal activity against Puccinia recondita f. sp. tritici / wheat / leaf disc curative (brown rust); format: in vivo; conditions: foliar, 144 h, wheat leaf segments cv. Kanzler, applied 1 day after inoculation, assessed 6-8 days after application, compared to untreated control
Description: Leaf disks or leaf segments of various plant species are cut from plants grown in a greenhouse. The cut leaf disks or segments are placed in multiwell plates (24-well format) onto water agar. The leaf disks are sprayed with a test solution before (preventative) or after (curative) inoculation. Compounds to be tested are prepared as DMSO solutions (max. 10 mg/ml) which are diluted to the appropriate concentration with 0.025% Tween20 just before spraying. The inoculated leaf disks or segments are incubated under defined conditions (temperature, relative humidity, light, etc.) according to the respective test system. A single evaluation of disease level is carried out 3 to 14 days after inoculation, depending on the pathosystem. Percent disease control relative to the untreated check leaf disks or segments is then calculated. Wheat leaf segments cv. Kanzler are placed on agar in multiwell plates (24-well format). The leaf segments are inoculated with a spore suspension of the fungus. Plates are stored in darkness at 19° C. and 75% rh. The formulated test compound diluted in water is applied 1 day after inoculation. The leaf segments are incubated at 19° C. and 75% rh under a light regime of 12 h light/12 h darkness in a climate cabinet and the activity of a compound is assessed as percent disease control compared to untreated when an appropriate level of disease damage appears in untreated check leaf segments (6-8 days after application).

[3] = system: Puccinia recondita f. sp. tritici; experiment: Fungicidal activity against Puccinia recondita f. sp. tritici / wheat / leaf disc preventative (brown rust); format: in vivo; conditions: foliar, 168 h, wheat leaf segments cv. Kanzler, inoculated 1 day after application, assessed 7-9 days after application, compared to untreated control
Description: Leaf disks or leaf segments of various plant species are cut from plants grown in a greenhouse. The cut leaf disks or segments are placed in multiwell plates (24-well format) onto water agar. The leaf disks are sprayed with a test solution before (preventative) or after (curative) inoculation. Compounds to be tested are prepared as DMSO solutions (max. 10 mg/ml) which are diluted to the appropriate concentration with 0.025% Tween20 just before spraying. The inoculated leaf disks or segments are incubated under defined conditions (temperature, relative humidity, light, etc.) according to the respective test system. A single evaluation of disease level is carried out 3 to 14 days after inoculation, depending on the pathosystem. Percent disease control relative to the untreated check leaf disks or segments is then calculated. Wheat leaf segments cv. Kanzler are placed on agar in multiwell plates (24-well format) and sprayed with the formulated test compound diluted in water. The leaf disks are inoculated with a spore suspension of the fungus 1 day after application. The inoculated leaf segments are incubated at 19° C. and 75% rh under a light regime of 12 h light/12 h darkness in a climate cabinet and the activity of a compound is assessed as percent disease control compared to untreated when an appropriate level of disease damage appears in untreated check leaf segments (7-9 days after application).

melting point [°C] | SMILES | inhibition of growth at 20 ppm [1] [%] | pest or weed control at 200 ppm (Phakopsora pachyrhizi) [%] | pest or weed control at 200 ppm [2] [%] | pest or weed control at 200 ppm [3] [%]
178 to 180 | CC1(C)CN=C(c2ccc(-c3noc(C(F)(F)F)n3)cc2)O1 [Compound A-21, 3-[4-(5,5-dimethyl-4H-oxazol-2-yl)phenyl]-5-(trifluoromethyl)-1,2,4-oxadiazole] | ≥ 80 | ≥ 80 | ≥ 80 | ≥ 80
77 to 80 | CC1COC(c2ccc(-c3noc(C(F)(F)F)n3)cc2)=N1 (stereo not drawn) [Compound A-1, 3-[4-(4-methyl-4,5-dihydrooxazol-2-yl)phenyl]-5-(trifluoromethyl)-1,2,4-oxadiazole] | ≥ 80 | ≥ 80 | ≥ 80 | ≥ 80
59 to 63 | COCC1=NOC(c2ccc(-c3noc(C(F)(F)F)n3)cc2)C1 (stereo not drawn) [Compound A-9, 3-[4-[3-(methoxymethyl)-4,5-dihydroisoxazol-5-yl]phenyl]-5-(trifluoromethyl)-1,2,4-oxadiazole] | ≥ 80 | ≥ 80 | ≥ 80 | ≥ 80
75 to 80 | CCC1=NOC(c2ccc(-c3noc(C(F)(F)F)n3)cc2)C1 (stereo not drawn) [Compound A-5, 3-[4-(3-ethyl-4,5-dihydroisoxazol-5-yl)phenyl]-5-(trifluoromethyl)-1,2,4-oxadiazole] | ≥ 80 | ≥ 80 | ≥ 80 | ≥ 80
110 to 115 | FC(F)(F)c1nc(-c2ccc(-c3ccnc(Cl)c3)cc2)no1 [Compound D-26, 3-[4-(2-chloro-4-pyridyl)phenyl]-5-(trifluoromethyl)-1,2,4-oxadiazole] | ≥ 80 | ≥ 80 | ≥ 80 | ≥ 80
79 to 83 | CCCC1=NOC(c2ccc(-c3noc(C(F)(F)F)n3)cc2)C1 (stereo not drawn) [Compound A-6, 3-[4-(3-propyl-4,5-dihydroisoxazol-5-yl)phenyl]-5-(trifluoromethyl)-1,2,4-oxadiazole] | ≥ 80 | ≥ 80 | ≥ 80 | ≥ 80
